Data taken from patent publication US5045566A, “Novel imidate insecticides” (ICI Americas Inc., priority 1989, dated 1991).

Assays:
Format in all cases: in vivo
[1] = test system: Black Bean Aphid [Aphis fabae (Scop.)]; assay: Black bean aphid spray test on nasturtium (BBA), 48 hours; details: percent of test compound in sprayed solution
Experimental: (§1) The compounds in Tables 1 and 2 above were tested for insecticidal activity using the following testing procedures. LC50 values, based on the results of these tests and calculated according to dosage-mortality curves, are expressed in Table 3.
Black Bean Aphid [Aphis fabae (Scop.)]:
Nasturtium plants (Tropaeolum sp.) approximately 5 cm tall, were transplanted into sandy loam soil in small cups and infested with 25-50 black bean aphids of mixed ages. Twenty-four hours later they were sprayed to the point of runoff with 50-50 acetone-water solutions of the test compounds. Treated plants were held in the greenhouse and mortality was recorded after 48 hours. Test concentrations ranged from 0.05% downward. The LC-50 value is expressed below in Table 3 under the heading "BBA" in terms of percent of the test compound in the sprayed solution.

[2] = test system: Housefly [Musca domestica]; assay: Housefly contact mortality in dishes (HF), 48 hours; details: μg of test compound per 25 female flies
Experimental: as §1
Housefly [Musca domestica]:
Test compounds were diluted in acetone and aliquots pipetted onto the bottom of aluminum dishes. To ensure even spreading of the chemical on the bottom of the dishes, 1 ml of acetone containing 0.01% peanut oil was also added to each dish. After all solvents had evaporated, the dishes were placed in circular cardboard cages containing 25 female houseflies, 1-2 days old. The cages were covered on the bottom with cellophane and on the top with tulle netting, and each contained a sugar-water saturated cotton plug for maintenance of the flies. Mortality was recorded after 48 hours. Test levels ranged from 100 μg/25 female houseflies downward. The LC-50 value is expressed below in Table 3 under the heading "HF", in terms of μg of the test compound per 25 female flies.

[3] = test system: Cabbage Looper [Trichoplusia ni (Hubner)]; assay: Cabbage looper leaf dip (CL), 3-5 days; details: percent in solution, second-instar larvae
Experimental: as §1
Cabbage Looper [Trichoplusia ni (Hubner)]:
Test compounds were diluted in a 50-50 acetone-water solution. Cotyledons of hyzini squash (Calabacita abobrinha), approximately 1×1.5 inches, were immersed in the test solutions for 2-3 seconds and placed on a wire screen to dry. The dried leaves were placed in petri dishes containing a moistened piece of filter paper and infested with 5 second-instar cabbage looper larvae. The dishes were placed in a high humidity chamber. Mortality of the larvae was recorded 3-5 days later. Test concentrations ranged from 0.1% downward. The LC-50 value is expressed below in Table 3 under the heading "CL" in terms of percent of the test compound in solution.

[4] = test system: Tobacco Budworm [Heliothis virescens (Fabricius)] eggs; assay: Tobacco budworm eggs (TBW-E); details: percent in solution; 2-day old eggs
Experimental: as §1
Tobacco Budworm [Heliothis virescens (Fabricius)]:
(b). Eggs: Paper towel patches of 2-day old eggs of the tobacco budworm were dipped in acetone solutions of the test compound and placed in petri dishes containing a portion of larval rearing medium. Treated eggs were maintained at 78° F. and mortality was recorded after all control eggs had hatched and the young larvae were feeding on the media. Test concentrations ranged from 0.1% downward. The LC-50 value is expressed below in Table 3 under the heading "TBW-E" in terms of percent of the test compound in the solution.

## CC(C)C(=Nc1cccc(Br)c1)OCc1cccc(Oc2ccc(F)cc2)c1 [Compound 229]
[1]
  LC50 BBA: 0.006%
[2]
  LC50 HF: 20 µg
[3]
  LC50 CL: 0.0005%
[4]
  LC50 TBW E (eggs): > 0.1%

## CC(C)C(=Nc1cccc(I)c1)OCc1cccc(Oc2ccccc2)c1 [Compound 136]
[1]
  LC50 BBA: 0.002%
[2]
  LC50 HF: 9 µg
[3]
  LC50 CL: 0.004%
[4]
  LC50 TBW E (eggs): 0.08%

## COc1cc(N=C(OCc2cccc(Oc3ccccc3)c2)C(C)C)cc(C(F)(F)F)c1 [Compound 76]
[1]
  LC50 BBA: 0.003%
[2]
  LC50 HF: 20 µg
[3]
  LC50 CL: 0.002%
[4]
  LC50 TBW E (eggs): 0.05%

## CC(C)(C)C(=Nc1cccc(Br)c1)OCc1cccc(Oc2ccccc2)c1 [Compound 134]
[1]
  LC50 BBA: > 0.05%
[2]
  LC50 HF: > 100 µg
[3]
  LC50 CL: 0.015%
[4]
  LC50 TBW E (eggs): > 0.1%

## Cc1ccc(N=C(OCc2cccc(Oc3ccccc3)c2)C(C)(C)C)cc1Cl [Compound 107]
[1]
  LC50 BBA: 0.01%
[2]
  LC50 HF: > 100 µg
[3]
  LC50 CL: 0.007%
[4]
  LC50 TBW E (eggs): > 0.1%

## COc1cc(N=C(OCc2cccc(Oc3ccccc3)c2)C(C)C)c(OC)cc1Cl [Compound 99]
[1]
  LC50 BBA: > 0.05%
[2]
  LC50 HF: > 100 µg
[3]
  LC50 CL: 0.016%
[4]
  LC50 TBW E (eggs): > 0.1%

## COc1ccc(Oc2cccc(COC(=Nc3ccc(F)c(Cl)c3)C(C)C)c2)cc1 [Compound 221]
[1]
  LC50 BBA: 0.01%
[2]
  LC50 HF: 62 µg
[3]
  LC50 CL: 0.0027%
[4]
  LC50 TBW E (eggs): > 0.1%

## Cc1ccc(Oc2cccc(COC(=Nc3ccc(F)cc3)C(C)C)c2)cc1 [Compound 231]
[1]
  LC50 BBA: 0.01%
[2]
  LC50 HF: > 100 µg
[3]
  LC50 CL: 0.003%
[4]
  LC50 TBW E (eggs): > 0.1%

## COc1ccc(N=C(OCc2cccc(Oc3ccccc3)c2)C(C)C)cc1OC [Compound 169]
[1]
  LC50 BBA: 0.003%
[2]
  LC50 HF: 10 µg
[3]
  LC50 CL: 0.009%
[4]
  LC50 TBW E (eggs): > 0.1%

## CC(C)C(=Nc1ccc(Cl)c(Cl)c1)OCc1cccc(Oc2ccc(F)c(F)c2)c1 [Compound 218]
[1]
  LC50 BBA: 0.003%
[2]
  LC50 HF: 25 µg
[3]
  LC50 CL: 0.0003%
[4]
  LC50 TBW E (eggs): 0.025%

## CC(C)C(=Nc1ccc(Br)c(Br)c1)OCc1cccc(Oc2ccc(F)cc2)c1 [Compound 251]
[1]
  LC50 BBA: 0.001%
[2]
  LC50 HF: 25 µg
[3]
  LC50 CL: 0.0005%
[4]
  LC50 TBW E (eggs): 0.06%

## CC(C)C(=Nc1ccc(C#N)c(F)c1)OCc1cccc(Oc2ccccc2)c1 [Compound 233]
[1]
  LC50 BBA: 0.01%
[2]
  LC50 HF: 10 µg
[3]
  LC50 CL: 0.0017%
[4]
  LC50 TBW E (eggs): 0.09%

## CC(C)C(=Nc1cc(Cl)c(Cl)cc1Cl)OCc1cccc(Oc2ccccc2)c1 [Compound 18]
[1]
  LC50 BBA: 0.003%
[2]
  LC50 HF: > 100 µg
[3]
  LC50 CL: 0.008%
[4]
  LC50 TBW E (eggs): 0.09%

## COc1cc(N=C(OCc2cccc(Oc3ccccc3)c2)C(C)C)cc(OC)c1OC [Compound 248]
[1]
  LC50 BBA: > 0.05%
[2]
  LC50 HF: 40 µg
[3]
  LC50 CL: 0.02%
[4]
  LC50 TBW E (eggs): > 0.1%

## Cc1cc(N=C(OCc2cccc(Oc3ccc(F)cc3)c2)C(C)C)ccc1F [Compound 236]
[1]
  LC50 BBA: 0.003%
[2]
  LC50 HF: 7 µg
[3]
  LC50 CL: 0.0018%
[4]
  LC50 TBW E (eggs): 0.06%

## CC(C)(Cl)C(=Nc1ccc(F)c(Cl)c1)OCc1cccc(Oc2ccc(F)cc2)c1 [Compound 224]
[1]
  LC50 BBA: 0.05%
[2]
  LC50 HF: > 100 µg
[3]
  LC50 CL: 0.001%
[4]
  LC50 TBW E (eggs): > 0.1%

## CC(C)C(=Nc1ccc(F)c(Cl)c1)OC(C)c1cccc(Oc2ccccc2)n1 (stereo not shown) [Compound 498]
[1]
  LC50 BBA: > 0.05%
[2]
  LC50 HF: 49 µg
[3]
  LC50 CL: 0.002%
[4]
  LC50 TBW E (eggs): > 0.1%

## CC(C)(C)C(=Nc1ccc(F)cc1)OCc1cccc(Oc2ccccc2)c1 [Compound 48]
[1]
  LC50 BBA: > 0.05%
[2]
  LC50 HF: > 100 µg
[3]
  LC50 CL: 0.03%
[4]
  LC50 TBW E (eggs): > 0.05%

## CC(C)C(=Nc1ccc(C#N)cc1)OCc1cccc(Oc2cccc(Cl)c2)c1 [Compound 208]
[1]
  LC50 BBA: 0.05%
[2]
  LC50 HF: 27 µg
[3]
  LC50 CL: 0.0035%
[4]
  LC50 TBW E (eggs): > 0.1%

## COc1ccc(OC)c(N=C(OCc2cccc(Oc3ccccc3)c2)C(C)C)c1Cl [Compound 100]
[1]
  LC50 BBA: > 0.05%
[2]
  LC50 HF: 100 µg
[3]
  LC50 CL: 0.05%
[4]
  LC50 TBW E (eggs): > 0.1%

## CC(C)C(=Nc1c(Br)cc(F)cc1Br)OCc1cccc(Oc2ccccc2)c1 [Compound 130]
[1]
  LC50 BBA: 0.05%
[2]
  LC50 HF: > 100 µg
[3]
  LC50 CL: 0.005%
[4]
  LC50 TBW E (eggs): > 0.1%

## CCCCc1ccc(N=C(OCc2cccc(Oc3ccccc3)c2)C(C)C)cc1 [Compound 152]
[1]
  LC50 BBA: 0.01%
[2]
  LC50 HF: > 100 µg
[3]
  LC50 CL: 0.009%
[4]
  LC50 TBW E (eggs): > 0.1%

## Cc1ccc(N=C(OCc2cccc(Oc3ccccc3)c2)C(C)(C)C)cc1C [Compound 167]
[1]
  LC50 BBA: > 0.05%
[2]
  LC50 HF: > 100 µg
[3]
  LC50 CL: 0.02%
[4]
  LC50 TBW E (eggs): > 0.1%

## CSc1cccc(N=C(OCc2cccc(Oc3ccccc3)c2)C(C)C)c1 [Compound 166]
[1]
  LC50 BBA: 0.001%
[2]
  LC50 HF: 22 µg
[3]
  LC50 CL: 0.009%
[4]
  LC50 TBW E (eggs): > 0.1%

## CC(C)C(=Nc1cccc(C(F)(F)F)c1)OC(C)c1cccc(Oc2ccccc2)n1 (stereo not shown) [Compound 499]
[1]
  LC50 BBA: > 0.05%
[2]
  LC50 HF: 63 µg
[3]
  LC50 CL: 0.0024%
[4]
  LC50 TBW E (eggs): > 0.1%

## CC1CC1C(=Nc1ccc(Cl)cc1)OCc1cccc(Oc2ccccc2)c1 (stereo not shown) [Compound 15]
[1]
  LC50 BBA: > 0.05%
[2]
  LC50 HF: > 100 µg
[3]
  LC50 CL: 0.025%
[4]
  LC50 TBW E (eggs): > 0.1%

## COc1ccc(Oc2cccc(COC(=Nc3ccc(Cl)c(Cl)c3)C(C)C)c2)cc1 [Compound 223]
[1]
  LC50 BBA: 0.003%
[2]
  LC50 HF: 43 µg
[3]
  LC50 CL: 0.008%
[4]
  LC50 TBW E (eggs): > 0.1%

## CCC(C)C(=Nc1ccc(Cl)c(Cl)c1)OCc1cccc(Oc2ccc(F)cc2)c1 (stereo not shown) [Compound 211]
[1]
  LC50 BBA: 0.01%
[2]
  LC50 HF: 61 µg
[3]
  LC50 CL: 0.0017%
[4]
  LC50 TBW E (eggs): > 0.1%

## CC(C)C(=Nc1cccc(Cl)c1)OCc1cccc(Oc2ccc(Br)cc2)c1 [Compound 260]
[1]
  LC50 BBA: 0.006%
[2]
  LC50 HF: 22 µg
[3]
  LC50 CL: 0.00075%
[4]
  LC50 TBW E (eggs): > 0.1%

## CC(C)C(=Nc1ccc(Br)cc1F)OCc1cccc(Oc2ccccc2)c1 [Compound 79]
[1]
  LC50 BBA: 0.03%
[2]
  LC50 HF: 6 µg
[3]
  LC50 CL: 0.003%
[4]
  LC50 TBW E (eggs): 0.05%

## CC(C)C(=Nc1ccc(F)c(F)c1)OCc1cccc(Oc2ccc(F)cc2F)c1 [Compound 214]
[1]
  LC50 BBA: 0.01%
[2]
  LC50 HF: 19 µg
[3]
  LC50 CL: 0.0003%
[4]
  LC50 TBW E (eggs): 0.04%

## CC(C)(C)C(=Nc1cccc(Cl)c1)OCc1cccc(Oc2ccccc2)c1 [Compound 12]
[1]
  LC50 BBA: > 0.05%
[2]
  LC50 HF: > 100 µg
[3]
  LC50 CL: 0.008%
[4]
  LC50 TBW E (eggs): > 0.1%

## COc1ccc(Oc2cccc(COC(=Nc3ccc(F)cc3)C(C)C)c2)cc1 [Compound 220]
[1]
  LC50 BBA: 0.03%
[2]
  LC50 HF: 85 µg
[3]
  LC50 CL: 0.007%
[4]
  LC50 TBW E (eggs): > 0.1%

## CCC(=Nc1ccc(CC)cc1)OCc1cccc(Oc2ccccc2)c1 [Compound 157]
[1]
  LC50 BBA: 0.002%
[2]
  LC50 HF: 25 µg
[3]
  LC50 CL: 0.009%
[4]
  LC50 TBW E (eggs): > 0.1%

## CSc1ccc(N=C(OCc2cccc(Oc3ccccc3)c2)C(Cl)Cl)cc1 [Compound 141]
[1]
  LC50 BBA: 0.006%
[2]
  LC50 HF: 35 µg
[3]
  LC50 CL: < 0.1%
[4]
  LC50 TBW E (eggs): > 0.1%

## CC(C)C(=Nc1ccc2c(c1)OC(C)(C)O2)OCc1cccc(Oc2ccc(Cl)cc2)c1 [Compound 241]
[1]
  LC50 BBA: < 0.05%
[2]
  LC50 HF: > 100 µg
[3]
  LC50 CL: 0.0004%
[4]
  LC50 TBW E (eggs): > 0.1%

## CC(C)C(=Nc1ccc(C#N)cc1)OCc1cccc(Oc2ccc(F)cc2)c1 [Compound 227]
[1]
  LC50 BBA: 0.01%
[2]
  LC50 HF: 10 µg
[3]
  LC50 CL: 0.0015%
[4]
  LC50 TBW E (eggs): 0.1%
